Results taken from article PMC9251361, “Effects of LPS Composition in Escherichia coli on Antibacterial Activity and Bacterial Uptake of Antisense Peptide-PNA Conjugates” (Frontiers in Microbiology, 2022).
In brackets after ≈: the same amount, converted by molar mass.

Assays:
[1] = test system: E. coli tolB, tolQ, and tolR mutants; assay: MIC broth microdilution, tol mutants as a group; assay type: cell-based, Escherichia coli
Experimental: (§1) Minimum inhibitory concentration (MIC) values were determined by broth microdilution according to standard protocols adapted to peptide-based antimicrobial compounds (Goltermann and Nielsen, [2020]). Briefly, 190 μl bacterial cell culture containing ≈10^5 cfu/ml was dispensed into a 96-well plate (Thermo Scientific, Nunc Cat. No. 260896, 96F straight w/lid) along with 10 μl PNA stock solution or antibiotic. The plate was incubated in a Tecan Genios plate reader at 37°C for 18 h, and OD was measured every 20 min at 595 nm. The MIC was determined as the lowest concentration, which inhibited visible growth (OD < 0.1) in the wells. […] Experiments were performed in triplicates as a minimum.
The Pal-Tol-system, an envelope spanning complex involved in maintaining the outer membrane integrity, has previously been implicated in general antibiotic susceptibility, and thus was also investigated.

[2] = test system: E. coli BW25113 ppiB mutant (Keio collection); assay: MIC broth microdilution; assay type: cell-based; conditions: Escherichia coli, BW25113, 18 h, read-out: MIC values, Carbenicillin
Experimental: (§2) All strains used in this study are listed in Supplementary Table S1. E. coli strains WD101 and WD101ΔeptAΔarnD (WD101ΔΔ) were kindly provided by Professor M. Stephen Trent (University of Georgia, USA). E. coli strains DB wild type, DB L5, and DB L9 were kindly provided by Dr. Douglas Browning (University of Birmingham, UK). Single deletion strains for envelope mutants were obtained from the Keio-collection (Baba et al., [2006]). All strains were grown in non-cation adjusted Muller Hinton broth (MHB) (Sigma, Cat. No. 70192). BPP-PNA conjugates (Table 1) were obtained as described previously (Good et al., [2001]; Ghosal et al., [2013]; Hansen et al., [2016]).
as §1

[3] = test system: E. coli BW25113 mrcB mutant (Keio collection); assay: MIC broth microdilution; assay type: cell-based; conditions: Escherichia coli, BW25113, 18 h, read-out: MIC values, Carbenicillin
Experimental: as §2, §1

E. coli BW25113 = assay: MIC broth microdilution; assay type: cell-based; conditions: Escherichia coli; Table 4; strain BW25113; MHB, 37°C, 18 h; read-out: MIC values, Carbenicillin
Experimental: as §2, §1

[4] = test system: E. coli BW25113 tolR mutant (Keio collection); assay: MIC broth microdilution; assay type: cell-based; conditions: Escherichia coli, BW25113, 18 h, read-out: MIC values, Carbenicillin
Experimental: as §2, §1

[5] = test system: E. coli BW25113 metL mutant (Keio collection); assay: MIC broth microdilution; assay type: cell-based; conditions: Escherichia coli, BW25113, 18 h, read-out: MIC values, Carbenicillin
Experimental: as §2, §1

[6] = test system: E. coli BW25113 tolB mutant (Keio collection); assay: MIC broth microdilution; assay type: cell-based; conditions: Escherichia coli, BW25113, 18 h, read-out: MIC values, Carbenicillin
Experimental: as §2, §1

[7] = test system: E. coli BW25113 hydN mutant (Keio collection); assay: MIC broth microdilution; assay type: cell-based; conditions: Escherichia coli, BW25113, 18 h, read-out: MIC values, Carbenicillin
Experimental: as §2, §1

[8] = test system: E. coli BW25113 tolQ mutant (Keio collection); assay: MIC broth microdilution; assay type: cell-based; conditions: Escherichia coli, BW25113, 18 h, read-out: MIC values, Carbenicillin
Experimental: as §2, §1

E. coli K12 MG1655 = assay: microbe, parasite or virus in culture; assay type: cell-based, Escherichia coli; conditions: Escherichia coli; Table 4; strain MG1655; MHB, 37°C, 18 h; read-out: MIC values, Carbenicillin
Experimental: as §2, §1

CC1(C)S[C@@H]2[C@H](NC(=O)C(C(=O)O)c3ccccc3)C(=O)N2[C@H]1C(=O)O (stereo partly shown) [Carbenicillin]
fold increase in carbenicillin susceptibility [1]: circa 8 fold
MIC [2]: 16 µg/mL (≈ 42.3 µM)
MIC [3]: 4 µg/mL (≈ 10.6 µM)
MIC (E. coli BW25113): 8 µg/mL (≈ 21.1 µM)
MIC [4]: 2 to 4 µg/mL (≈ 5.29 to 10.6 µM)
MIC [5]: 16 µg/mL (≈ 42.3 µM)
MIC [6]: ≤ 2 µg/mL
MIC [7]: 16 µg/mL (≈ 42.3 µM)
MIC [8]: ≤ 2 µg/mL
MIC (E. coli K12 MG1655): 16 µg/mL (≈ 42.3 µM)
